Results on five molecules are retold here after US9796671B2, “Aurora kinase inhibitors” (REGENTS OF THE UNIVERSITY OF MINNESOTA, priority 2012, dated 2017).

In the test the test system is HCT116 cells. As to the kind of experiment: Anchorage-independent growth (soft agar colony formation). In kind it is cell-based. The following applies: 0.5 μM. How it is done:
FIGS. 3A and 3B. Compounds 1-8 suppress the anchorage-independent growth of HCT116 cells. The asterisk indicates a significant (* p<0.05, ** p<0.01) decrease in colony formation in cells treated with each compound compared with the DMSO treated control group. Two concentrations of each compound, 0.5 μM and 5 μM were tested. […] Compounds 2 and 4 had no effect.
Tumor cells are suspended in basal medium Eagle (BME) medium and added to 0.6% agar, with different concentrations of Compound 1 in a base layer and a top layer of 0.3% agar. The cultures are maintained at 37° C. in a 5% CO2 incubator for 1 to 2 weeks and then colonies are counted under a microscope using the Image-Pro Plus software (v.4) program (Media Cybernetics, Silver Spring, Md.).
Take `O=C(/C=C/c1ccc2c(c1)OCO2)/C=C1/C(=O)Nc2ccc(Cl)cc21` [Compound 2]: the “anchorage-independent growth of HCT116 cells (colony formation)” value (shortened to “anchorage-independent growth”) was “no effect”.

For `O=C(/C=C/c1ccc2c(c1)OCO2)/C=C1/C(=O)Nc2cccc(Cl)c21` [Compound 4], the “anchorage-independent growth” value is “no effect”.

With `COc1cc(/C=C/C(=O)/C=C2/C(=O)Nc3ccccc32)cc(OC)c1OC` [Compound 5], the “anchorage-independent growth” value is “best efficiency”.

As to `O=C(/C=C/c1ccc2c(c1)OCO2)/C=C1/C(=O)Nc2ccc(F)cc21` [Compound 6], the “anchorage-independent growth” value is “best efficiency”.

As to `COc1cc(/C=C/C(=O)/C=C2/C(=O)Nc3ccccc32)ccc1O` [Compound 8], the “anchorage-independent growth” value is “best efficiency”.
